Source: patent US20250290080A1, “METHODS TO PREVENT RAPID SILENCING OF GENES IN PLURIPOTENT STEM CELLS” (FUJIFILM Cellular Dynamics, Inc., priority 2021, published 2025)
Entries after “also recorded” stand apart in the source; their conditions may differ.

Experiments:
[1] = test system: silenced CpG-free AcGFP1 clones; test: NaBut treatment of silenced CpG-free AcGFP1 clones, % GFP expression by flow cytometry; assay type: cell-based
Protocol: FIGS. 5A-5B: Silenced transgene be reactivated with NaBut treatment. A small number of cells were silenced in the CpG-free AcGPF1 cultures (<3% of cells, FIG. 3A). These silenced cells were single cell sorted and expanded to further investigate their silencing and research methods for overcoming the silencing. Two months after sorting for no GFP expression, silenced CpG-free AcGFP1 clones were treated with 1 mM, 0.5 mM, or 1 μM of NaBut. […] After a successful pilot experiment, the duration of NaBut treatment was increased to 46 days with NaBut treatment doses of 0.25 mM and 0.5 mM and the GFP expression levels were monitored over time by fluorescent microscopy and flow cytometry. The initial results were confirmed (FIGS. 5A and 5B, dark blue bar: day 8 of treatment).
However, after 5 months, a small percentage of cells were detected with no GFP expression (3%) even though the CpGs had been removed from AcGFP1. To investigate this population, clones were isolated by single cell sorting for no GFP expression. The cells were treated with sodium butyrate (NaBut), a histone deacetylase (HDAC) inhibitor capable of removing chromatin structure and inducing demethylation.

iPSCs = test: Fluorescent protein transgene expression over time in engineered iPSCs (PPP1R12C/AAVS1 locus); assay type: cell-based
From the text: FIGS. 1A-1D: ZsGreen expression driven by EEF1A1p is mottled in iPSCs. iPSCs 01278.103 (FIG. 1A, 1B) and 01279.107 (FIG. 1C, 1D) were engineered with EEF1A1p-ZsGreen at the PPP1R12C locus. Brightfield and Fluorescence (GFP) microscopy were used to capture the GFP expression in the cells 11 passages post-engineering (FIGS. 1A-1B) or 18 passages post-engineering (FIGS. 1C-1D).
The percent GFP expression in five clones targeted with EEF1A1p-CpG-free-AcGFP1 (FIG. 3A) and nine clones targeted with EEF1A1p-AcGFP1 (FIG. 3B) at the AAVS1 locus was monitored overtime.
FIGS. 4A-4C: Rapid silencing of AcGFP1 in iPSCs. Depiction of engineering iPSCs at the PPP1R12C locus (AAVS1 safe harbor) with three cassettes EEF1A1p-mRFP1+PGKp-Puro, EEF1A1p-AcGFP1 or EEF1A1p-CpG-Free AcGFP1. Noted within the figure are the engineered iPSC ID numbers for cell lines 8717 and 9650 which are used in further experiments throughout the document (FIG. 4A). […] After two months in culture, AcGFP1 engineered iPSCs were bulk sorted for AcGFP1 expression. Brightfield and Fluorescence (GFP) microscopy was used to capture the GFP expression in the cells 12 days post-sorting (FIG. 4B) or 23 days post-sorting (FIG. 4C).
The EEF1A1 promoter was used for expression of AcGFP1 in iPSCs at the PPP1R12C locus.

iPSC line 01279.107 [2] = test: Luciferase expression during transient transfection of promoter-pGL3 plasmids (Dual-Luciferase Reporter Assay); assay type: cell-based, human; details: assayed one day later
From the text: Promoters cloned: The following promoters were identified as being likely candidates for constitutive expression in all cell types. Some were cloned from existing plasmids (CAG, PGK, UBC-version1, EEF1A1, ACTB). […] The new promoters include RPS19, UBA52, HSP90AB1, an enlarged region of UBC (version 2), UBB, RPSA, NACA, and COX8A. Sequences were cloned into the pGL3 plasmid vector (replacing the SV40 promoter between MluI and NcoI restriction sites) to enable a comparison of promoter strength when driving the luciferase reporter gene.
Luciferase expression during transient transfection: Transient transfection was performed of the promoter-pGL3 plasmids into iPSCs to determine the strength of expression. Using a 96wp format, 50 uL of E8 media+10 uM blebbistatin was added to each well. Each plasmid was assayed in triplicate by adding 16.5 uL of the following reagent preparation. One well of a 6wp of iPSC line 01279.107 was harvested using Accutase, resuspended in 3.5 mL E8 media+10 uM blebbistatin, and 50 uL was added to each well. One day later the cells were assayed using the Dual-Luciferase Reporter Assay System (Promega).
Expression values at or above the level of the PGK promoter were desired so RPS19, UBA52, HSP90AB1, and UBC were selected for further study.

iPSC line 01279.107 [3] = test: ZsGreen expression in engineered iPSC lines in long-term culture, flow cytometry; assay type: cell-based, human; details: for ZsGreen expression in iPSC over time: culture up to seven months, E8 media/vitronectin
From the text: ZsGreen Constructs Integrated at the AAVS1 Safe Harbor Locus: To examine longer term expression driven by the candidate promoters in a chromosomal context, they were cloned into plasmids controlling ZsGreen fluorescent protein and targeted to the AAVS1 safe harbor locus on chromosome 19 in human iPSC (plasmid design is shown below using the CAG promoter as an example). […] Correctly targeted heterozygous clones were expanded.
Genomic Loci Suitable for Tagging to Yield Constitutive Expression: In addition to promoter-driven expression from a safe harbor, specific genes expressed in most cell-types can be tagged with a reporter gene to give constitutive expression. The genes HSP90AB1, ACTB, CTNNB1, and MYL6 were chosen for evaluation and were tagged with ZsGreen and an F2A cleavage sequence via TALEN-mediated gene editing. Correctly targeted heterozygous clones were expanded.
ZsGreen expression in iPSC: Engineered iPSC lines expressing ZsGreen fluorescent protein were maintained in culture for up to seven months (E8 media/vitronectin coated plates) and periodically checked for green expression using flow cytometry on an Accuri C6 instrument (BD).

[4] = test system: iPSC-derived neuronal cells; test: ZsGreen expression after neuronal differentiation protocol, day 21 flow cytometry; assay type: cell-based, human; details: day 21 of differentiation
From the text: (§1) Differentiation: In order to determine the stability of expression post-differentiation, the engineered lines were subjected to differentiation protocols to direct them toward either neuronal or cardiac cell types.

[5] = test system: iPSC-derived cardiac cells; test: ZsGreen expression after cardiac differentiation protocol, day 21 flow cytometry; assay type: cell-based, human; details: day 21 of differentiation
From the text: as §1

iPSC line 2.038 = test: Drug resistance of iPSC line 2.038 transfected with WT PuroR vs. CpG-free PuroR plasmids; assay type: cell-based; details: cassette introduced into iPSCs by electroporation
From the text: The CpG-free PuroR cassette was introduced into iPSCs by electroporation.

| Molecule | ZsGreen expression in iPSC over time (iPSC line 01279.107 [3]) | ZsGreen fluorescence after neuronal differentiation [4] | ZsGreen expression after cardiac differentiation [5] | further results |
| --- | --- | --- | --- | --- |
| CCCC(=O)[O-].[Na+] [NaBut, sodium butyrate] | – | – | – | effect on GFP expression levels over time ([1]; 0.25 mM and 0.5 mM NaBut, 46 days): dose dependent effect; reactivation of GFP expression ([1]; 1 mM, 0.5 mM, or 1 μM NaBut, nine days, flow cytometry): dose dependent reactivation; also recorded: dose-dependent reactivation |
| AcGFP1: Aequorea coerulescens green fluorescence protein DNA sequence, SEQ ID NO:13 [reference compound] | – | – | – | cells with no GFP expression (silenced) (iPSCs; CpG-free AcGFP1 cultures, after 5 months): 3%; stability of fluorescent protein expression over time (iPSCs; EEF1A1 promoter, PPP1R12C (AAVS1) locus, iPSCs in culture): not maintained overtime; also recorded: did not retain consistent expression |
| HSP90AB1 promoter: HSP90AB1 promoter, SEQ ID NO:5 | – | – | – | Normalized luciferase (Firefly/Renilla ratio, normalized to EEF1A1=100%) (iPSC line 01279.107 [2]): ~75% |
| HSP90AB1del400 promoter: HSP90AB1 promoter with 417 bp deletion between two ClaI sites, SEQ ID NO:4 | stable iPSC expression over four months | many cells with diminishing fluorescence | varying amounts of expression silencing | Normalized luciferase (Firefly/Renilla ratio, normalized to EEF1A1=100%) (iPSC line 01279.107 [2]): around 66% |
| RPS19: RPS19 promoter, SEQ ID NO:2 | stable iPSC expression over four months | tight and stable expression | varying amounts of expression silencing | ZsGreen expression in iPSC at seven months (iPSC line 01279.107 [3]; out to seven months in culture): some silencing |
| UBA52: UBA52 promoter, SEQ ID NO:3 | stable iPSC expression over four months | tight and stable expression | tight and stable expression | – |
| CpG-free PuroRv1: CpG-free puromycin resistance gene sequence, SEQ ID NO:15 (nucleic acid, misc_feature 1..606 Synthetic promotor sequence) DNA: ATGACTGAATACAAACCAACTGTTAGACTGGCAACTAGAGATGATGTTCCAAGAGCAGTTAGAACCCTGGCTGCTGCATTTGCTGACTACCCTGCAACCAGACACACTGTGGACCCAGACAGACACATTGAAAGAGTGACTGAACTGCAGGAGCTGTTCCTGACCAGAGTGGGCCTGGACATTGGCAAAGTGTGGGTGGCAGATGATGGTGCTGCTGTGGCAGTGTGGACCACCCCTGAATCTGTTGAAGCTGGTGCAGTGTTTGCTGAGATTGGCCCAAGAATGGCAGAACTGTCTGGCAGCAGACTGGCAGCACAACAGCAGATGGAAGGTCTGCTGGCACCACACAGACCAAAAGAACCTGCTTGGTTCCTGGCAACTGTGGGTGTGAGCCCTGACCACCAGGGTAAGGGCCTGGGCTCTGCAGTGGTGCTGCCTGGTGTGGAAGCAGCTGAAAGAGCAGGTGTGCCTGCTTTCCTGGAGACCTCAGCTCCAAGAAACCTGCCTTTCTATGAAAGACTGGGCTTCACTGTGACTGCTGATGTGGAAGTGCCAGAAGGCCCAAGAACTTGGTGCATGACTAGAAAACCAGGTGCTTGATAATGA | – | – | – | drug resistance conferred (iPSC line 2.038): capable of conferring drug resistance |
| PuroRv2: CpG-free puromycin resistance gene version 2, SEQ ID NO:16 (nucleic acid, misc_feature 1..606 Synthetic promotor sequence) DNA: ATGACTGAATACAAACCAACTGTTAGACTGGCAACTAGAGATGATGTTCCAAGAGCAGTTAGAACCCTGGCTGCTGCATTTGCTGACTACCCTGCAACCAGACACACTGTGGACCCAGACAGACACATTGAAAGAGTGACTGAACTGCAGGAGCTGTTCCTGACCAGAGTGGGCCTGGACATTGGCAAAGTGTGGGTGGCAGATGATGGTGCTGCTGTGGCAGTGTGGACCACCCCTGAATCTGTTGAAGCTGGTGCAGTGTTTGCTGAGATTGGCCCAAGAATGGCAGAACTGTCTGGCAGCAGACTGGCAGCACAACAGCAGATGGAAGGTCTGCTGGCACCACACAGACCAAAAGAACCTGCTTGGTTCCTGGCAACTGTGGGTGTGAGCCCTGACCACCAGGGTAAGGGCCTGGGCTCTGCAGTGGTGCTGCCTGGTGTGGAAGCAGCTGAAAGAGCAGGTGTGCCTGCTTTCCTGGAGACCTCAGCTCCAAGAAACCTGCCTTTCTATGAAAGACTGGGCTTCACTGTGACTGCTGATGTGGAATGCCCAAAGGACAGAGCAACTTGGTGCATGACTAGAAAACCAGGTGCTTGATAATGA | – | – | – | drug resistance conferred (iPSC line 2.038): capable of conferring drug resistance |
